The test system of the assay is Beagle dogs. In words: Intraocular pressure studies in dogs (applanation pneumatonometry). Particulars: conscious Beagle dogs, topical to one eye, approx. 35 μl, IOP before and at 2, 4, 6 hours on each day of 5 day study; vehicle in other eye. It counts as in vivo. How it is done:
Measurement of intraocular pressure studies in dogs will involve applanation pneumatonometry performed in Beagle dogs of both sexes. The animals will remain conscious throughout the study and will be gently restrained by hand. Compound 4-{[5-chloro-2-(4-chloro-benzyloxy)-benzoylamino]-methyl}-benzoic acid will be administered topically to one eye using a dropper bottle to deliver approximately a 35 μl volume, the other eye received vehicle (1% polysorbate 80 in 5 mM Tris HCl) as a control. Proparacaine at 0.25% was used for corneal anesthesia during tonometry. Intraocular pressure will be determined just before drug administration and at 2, 4, 6 hours thereafter on each day of the 5 day study. Measurement of ocular surface hyperemia will be performed immediately before each of the intraocular pressure readings. Ocular surface hyperemia grading will be semi-quantitative and assessed according to a 5 point scoring scale used for clinical evaluations: 0=none; 0.5=trace; 1=mild; 2=moderate; and 3=severe.

On to `O=C(O)c1ccc(CNC(=O)c2cc(Cl)ccc2OCc2ccc(Cl)cc2)cc1` [4-{[5-chloro-2-(4-chloro-benzyloxy)-benzoylamino]-methyl}-benzoic acid], for which the intraocular pressure result was “significantly reduce intraocular pressure”.

Source of the values: US20130158122A1, “EP2 Agonist from Non-Prostanoid Structures Designed as PGE2 Antagonists” (ALLERGAN, INC., priority 2010, published 2013).
